Measured values published in US5571836A, “Viral attachment inhibitors” (priority 1995, dated 1996).
Counter-ions that a name gives are not always drawn.

Key:
influenza virus X-31 = experiment: Fetuin binding inhibition assay, influenza virus X-31; details: for A^i (absorbance): 492 nm
[1] = tested on: influenza virus Victoria/3/75; experiment: Fetuin binding inhibition assay, influenza virus Victoria/3/75; details: for A^i (absorbance): 492 nm
[2] = tested on: influenza virus Port Chalmers/1/73; experiment: Fetuin binding inhibition assay, influenza virus Port Chalmers/1/73; details: for A^i (absorbance): 492 nm
[3] = tested on: influenza virus Chile/1/83; experiment: Fetuin binding inhibition assay, influenza virus Chile/1/83; details: for A^i (absorbance): 492 nm
[4] = tested on: influenza virus B/USSR/100/83; experiment: Fetuin binding inhibition assay, influenza virus B/USSR/100/83; details: for A^i (absorbance): 492 nm
[5] = tested on: influenza virus B/Hong Kong/8/73; experiment: Fetuin binding inhibition assay, influenza virus B/Hong Kong/8/73; details: for A^i (absorbance): 492 nm
[6] = tested on: influenza virus Philippines/2/82; experiment: Fetuin binding inhibition assay, influenza virus Philippines/2/82; details: for A^i (absorbance): 492 nm
[7] = tested on: influenza virus England/321/77; experiment: Fetuin binding inhibition assay, influenza virus England/321/77; details: for A^i (absorbance): 492 nm
[8] = target: Vibrio cholerae neuraminidase (Vibrio cholerae, UniProt P0C6E9); experiment: Neuraminidase cleavage (resistance), TLC analysis; format: biochemical; details: 37° C., 450 U/ml, pH 5.6; compared with compound (IV)
Procedure: (§1) Compound (IV) was incubated at 37° C. with Vibrio cholerae neuraminidase (450 U/ml) in 0.1M acetate buffer, pH 5.6, containing 0.9% NaCi and 0.1% CaCl2. Neuraminidase cleavage was determined on aliquots taken at intervals by TLC analysis (Merck silica gel plates in propanol/ethanol/25% aqueous ammonia, 2:2:1). Spots were developed by charring the plates with 3% H3 PO4 at 150° C. and quantitated densitometrically. The results are depicted in The FIGURE (v).

neuraminidase = details: prior art; cited from earlier work
[9] = format: physicochemical; details: control solutions without enzyme
Procedure: as §1

[10] = tested on: influenza virus hemagglutinin; details: prior art; cited from earlier work
[11] = tested on: influenza virus USSR/90/77; experiment: Fetuin binding inhibition assay, influenza virus USSR/90/77; details: for A^i (absorbance): 492 nm
[12] = tested on: influenza virus Texas/1/77; experiment: Fetuin binding inhibition assay, influenza virus Texas/1/77; details: for A^i (absorbance): 492 nm
[13] = tested on: influenza virus USSR/2/85; experiment: Fetuin binding inhibition assay, influenza virus USSR/2/85; details: for A^i (absorbance): 492 nm
[14] = tested on: influenza virus B/Singapore/222/79; experiment: Fetuin binding inhibition assay, influenza virus B/Singapore/222/79; details: for A^i (absorbance): 492 nm
[15] = tested on: influenza virus USSR/3/85; experiment: Fetuin binding inhibition assay, influenza virus USSR/3/85; details: for A^i (absorbance): 492 nm
[16] = tested on: influenza virus Taiwan/1/86; experiment: Fetuin binding inhibition assay, influenza virus Taiwan/1/86; details: for A^i (absorbance): 492 nm
[17] = Stability of compound (observation); format: physicochemical; details: must be used immediately in coupling with polymer

Chain of Vibrio cholerae neuraminidase (P0C6E9 25-781): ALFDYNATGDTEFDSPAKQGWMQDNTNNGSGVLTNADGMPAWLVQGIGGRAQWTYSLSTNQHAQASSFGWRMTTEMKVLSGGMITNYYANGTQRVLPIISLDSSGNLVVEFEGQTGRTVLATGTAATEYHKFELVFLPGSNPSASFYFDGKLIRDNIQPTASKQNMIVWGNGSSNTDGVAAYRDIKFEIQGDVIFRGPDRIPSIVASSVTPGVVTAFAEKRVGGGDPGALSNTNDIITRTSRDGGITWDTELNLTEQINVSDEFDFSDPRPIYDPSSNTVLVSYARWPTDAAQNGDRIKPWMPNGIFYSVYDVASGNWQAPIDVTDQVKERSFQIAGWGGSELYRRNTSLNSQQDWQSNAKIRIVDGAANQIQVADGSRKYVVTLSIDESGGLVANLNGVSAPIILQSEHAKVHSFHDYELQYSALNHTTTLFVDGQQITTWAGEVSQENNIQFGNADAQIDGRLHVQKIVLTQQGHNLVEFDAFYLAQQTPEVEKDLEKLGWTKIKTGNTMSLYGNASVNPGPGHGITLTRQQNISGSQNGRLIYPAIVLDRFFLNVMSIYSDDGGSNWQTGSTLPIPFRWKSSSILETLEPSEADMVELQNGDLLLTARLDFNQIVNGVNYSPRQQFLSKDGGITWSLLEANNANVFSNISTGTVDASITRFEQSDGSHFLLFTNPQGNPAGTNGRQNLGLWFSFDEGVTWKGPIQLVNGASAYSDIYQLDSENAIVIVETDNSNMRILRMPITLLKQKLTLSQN

In the case of `CC(=O)NC1C(O)CC(OCc2ccccc2)(C(=O)O)OC1C(O)C(O)CO` [IX, benzyl 5-acetamido-3,5-dideoxy-α-D-glycero-D-galacto-nonulopyranosidonic acid (sodium salt), reference compound], the “-lgKd(i)” value (influenza virus X-31; 1.28 mM sialoside) is reported as 2.8, the “A^i (absorbance)” value (influenza virus X-31; 1.28 mM sialoside) is reported as 0.66 and the “-lgKd(i)” value (influenza virus X-31; .32 mM sialoside) is reported as 3.1. The “A^i (absorbance)” value (influenza virus X-31; .32 mM sialoside) was 0.86, the “-lgKd(i)” value (influenza virus X-31; .64 mM sialoside) was 2.7 and the “A^i (absorbance)” value (influenza virus X-31; .64 mM sialoside) was 0.84. For the same molecule, the “-lgKd ± SD” value (influenza virus X-31; mean over concentrations) was 2.9 ± 0.21, the “-lgKd(i)” value ([1]; 1.60 mM sialoside) was 4.2 and the “A^i (absorbance)” value ([1]; 1.60 mM sialoside) was 0.09. The “-lgKd(i)” value ([1]; .05 mM sialoside) was 4.0, the “A^i (absorbance)” value ([1]; .05 mM sialoside) was 0.64 and the “-lgKd(i)” value ([1]; .10 mM sialoside) was 4.0. For the same molecule, the “A^i (absorbance)” value ([1]; .10 mM sialoside) was 0.58, the “-lgKd(i)” value ([1]; .20 mM sialoside) was 4.05 and the “A^i (absorbance)” value ([1]; .20 mM sialoside) was 0.45. The “-lgKd(i)” value ([1]; .40 mM sialoside) was 4.1, the “A^i (absorbance)” value ([1]; .40 mM sialoside) was 0.31 and the “-lgKd(i)” value ([1]; .80 mM sialoside) was 4.2. For the same molecule, the “A^i (absorbance)” value ([1]; .80 mM sialoside) was 0.16, the “-lgKd ± SD” value ([1]; mean over concentrations) was 4.1 ± 0.08 and the “-lgKd(i)” value ([2]; 1.60 mM sialoside) was 3.4. For the same molecule, the “A^i (absorbance)” value ([2]; 1.60 mM sialoside) was 0.20, the “-lgKd(i)” value ([2]; .05 mM sialoside) was 3.7 and the “A^i (absorbance)” value ([2]; .05 mM sialoside) was 0.51. For the same molecule, the “-lgKd(i)” value ([2]; .10 mM sialoside) was 4.1, the “A^i (absorbance)” value ([2]; .10 mM sialoside) was 0.36 and the “-lgKd(i)” value ([2]; .20 mM sialoside) was 3.8. The “A^i (absorbance)” value ([2]; .20 mM sialoside) was 0.36, the “-lgKd(i)” value ([2]; .40 mM sialoside) was 3.6 and the “A^i (absorbance)” value ([2]; .40 mM sialoside) was 0.33. The “-lgKd(i)” value ([2]; .80 mM sialoside) was 3.5, the “A^i (absorbance)” value ([2]; .80 mM sialoside) was 0.28 and the “-lgKd ± SD” value ([2]; mean over concentrations) was 3.7 ± 0.3. The “-lgKd(i)” value ([3]; 1.28 mM sialoside) was 3.4, the “A^i (absorbance)” value ([3]; 1.28 mM sialoside) was 0.42 and the “-lgKd(i)” value ([3]; .16 mM sialoside) was 3.2. The “A^i (absorbance)” value ([3]; .16 mM sialoside) was 0.9, the “-lgKd(i)” value ([3]; .32 mM sialoside) was 3.4 and the “A^i (absorbance)” value ([3]; .32 mM sialoside) was 0.72. For the same molecule, the “-lgKd(i)” value ([3]; .64 mM sialoside) was 3.3, the “A^i (absorbance)” value ([3]; .64 mM sialoside) was 0.62 and the “-lgKd ± SD” value ([3]; mean over concentrations) was 3.3 ± 0.1. The “-lgKd(i)” value ([4]; 1.28 mM sialoside) was 3.1, the “A^i (absorbance)” value ([4]; 1.28 mM sialoside) was 0.9 and the “-lgKd(i)” value ([4]; .16 mM sialoside) was 3.6. The “A^i (absorbance)” value ([4]; .16 mM sialoside) was 1.2, the “-lgKd(i)” value ([4]; .32 mM sialoside) was 3.6 and the “A^i (absorbance)” value ([4]; .32 mM sialoside) was 1.0. For the same molecule, the “-lgKd ± SD” value ([4]; mean over concentrations) was 3.4 ± 0.3, the “-lgKd(i)” value ([5]; 1.28 mM sialoside) was 3.0 and the “A^i (absorbance)” value ([5]; 1.28 mM sialoside) was 0.32. For the same molecule, the “-lgKd(i)” value ([5]; .32 mM sialoside) was 2.7, the “A^i (absorbance)” value ([5]; .32 mM sialoside) was 0.55 and the “-lgKd(i)” value ([5]; .64 mM sialoside) was 2.8. For the same molecule, the “A^i (absorbance)” value ([5]; .64 mM sialoside) was 0.48, the “-lgKd ± SD” value ([5]; mean over concentrations) was 2.8 ± 0.15 and the “-lgKd(i)” value ([6]; .05 mM sialoside) was 5.2. For the same molecule, the “A^i (absorbance)” value ([6]; .05 mM sialoside) was 0.35, the “-lgKd(i)” value ([6]; .10 mM sialoside) was 5.3 and the “A^i (absorbance)” value ([6]; .10 mM sialoside) was 0.18. The “-lgKd(i)” value ([6]; .20 mM sialoside) was 5.4, the “A^i (absorbance)” value ([6]; .20 mM sialoside) was 0.08 and the “-lgKd(i)” value ([6]; .40 mM sialoside) was 5.4. The “A^i (absorbance)” value ([6]; .40 mM sialoside) was 0.05, the “-lgKd(i)” value ([6]; .80 mM sialoside) was 5.3 and the “A^i (absorbance)” value ([6]; .80 mM sialoside) was 0.03. The “-lgKd ± SD” value ([6]; mean over concentrations) was 5.3 ± 0.08, the “-lgKd(i)” value ([7]; .08 mM sialoside) was 4.4 and the “A^i (absorbance)” value ([7]; .08 mM sialoside) was 0.49. For the same molecule, the “-lgKd(i)” value ([7]; .16 mM sialoside) was 4.6, the “A^i (absorbance)” value ([7]; .16 mM sialoside) was 0.21 and the “-lgKd(i)” value ([7]; .32 mM sialoside) was 4.5. For the same molecule, the “A^i (absorbance)” value ([7]; .32 mM sialoside) was 0.13, the “-lgKd(i)” value ([7]; .64 mM sialoside) was 4.8 and the “A^i (absorbance)” value ([7]; .64 mM sialoside) was 0.04. The “-lgKd ± SD” value ([7]; mean over concentrations) was 4.5 ± 0.1, the Neuraminidase cleavage [8] was “cleaved much more rapidly” and the “Susceptibility to neuraminidase cleavage” value (neuraminidase) was “not immune to this cleavage”. The “Stability in the absence of enzyme” value [9] was “at least 23 hours”, the Inhibition of attachment [10] was “shows greater inhibition of attachment than 5-acetyl neuraminic acid itself” and the “-lgKd(i)” value ([11]; 1.28 mM sialoside) was 2.8. For the same molecule, the “A^i (absorbance)” value ([11]; 1.28 mM sialoside) was 0.6, the “-lgKd(i)” value ([11]; .16 mM sialoside) was 3.1 and the “A^i (absorbance)” value ([11]; .16 mM sialoside) was 0.8. The “-lgKd(i)” value ([11]; .32 mM sialoside) was 3.1, the “A^i (absorbance)” value ([11]; .32 mM sialoside) was 0.7 and the “-lgKd ± SD” value ([11]; mean over concentrations) was 3.0 ± 0.17. For the same molecule, the “-lgKd(i)” value ([12]; 1.60 mM sialoside) was 5.1, the “A^i (absorbance)” value ([12]; 1.60 mM sialoside) was 0.04 and the “-lgKd(i)” value ([12]; .05 mM sialoside) was 4.8. The “A^i (absorbance)” value ([12]; .05 mM sialoside) was 0.77, the “-lgKd(i)” value ([12]; .10 mM sialoside) was 4.9 and the “A^i (absorbance)” value ([12]; .10 mM sialoside) was 0.55. The “-lgKd(i)” value ([12]; .20 mM sialoside) was 5.0, the “A^i (absorbance)” value ([12]; .20 mM sialoside) was 0.30 and the “-lgKd(i)” value ([12]; .40 mM sialoside) was 4.9. For the same molecule, the “A^i (absorbance)” value ([12]; .40 mM sialoside) was 0.20, the “-lgKd(i)” value ([12]; .80 mM sialoside) was 5.0 and the “A^i (absorbance)” value ([12]; .80 mM sialoside) was 0.09. For the same molecule, the “-lgKd ± SD” value ([12]; mean over concentrations) was 5.0 ± 0.1, the “-lgKd(i)” value ([13]; 1.28 mM sialoside) was 3.5 and the “A^i (absorbance)” value ([13]; 1.28 mM sialoside) was 0.12. The “-lgKd(i)” value ([13]; .32 mM sialoside) was 3.1, the “A^i (absorbance)” value ([13]; .32 mM sialoside) was 0.32 and the “-lgKd(i)” value ([13]; .64 mM sialoside) was 3.3. For the same molecule, the “A^i (absorbance)” value ([13]; .64 mM sialoside) was 0.25, the “-lgKd ± SD” value ([13]; mean over concentrations) was 3.3 ± 0.2 and the “-lgKd(i)” value ([14]; 1.28 mM sialoside) was 3.4. The “A^i (absorbance)” value ([14]; 1.28 mM sialoside) was 0.39, the “-lgKd(i)” value ([14]; .16 mM sialoside) was 3.4 and the “A^i (absorbance)” value ([14]; .16 mM sialoside) was 0.85. The “-lgKd(i)” value ([14]; .32 mM sialoside) was 3.3, the “A^i (absorbance)” value ([14]; .32 mM sialoside) was 0.76 and the “-lgKd(i)” value ([14]; .64 mM sialoside) was 3.2. For the same molecule, the “A^i (absorbance)” value ([14]; .64 mM sialoside) was 0.65, the “-lgKd ± SD” value ([14]; mean over concentrations) was 3.3 ± 0.1 and the “-lgKd(i)” value ([15]; 1.28 mM sialoside) was 4.5. The “A^i (absorbance)” value ([15]; 1.28 mM sialoside) was 0.06, the “-lgKd(i)” value ([15]; .08 mM sialoside) was 4.5 and the “A^i (absorbance)” value ([15]; .08 mM sialoside) was 0.5. For the same molecule, the “-lgKd(i)” value ([15]; .16 mM sialoside) was 4.6, the “A^i (absorbance)” value ([15]; .16 mM sialoside) was 0.28 and the “-lgKd(i)” value ([15]; .32 mM sialoside) was 4.6. For the same molecule, the “A^i (absorbance)” value ([15]; .32 mM sialoside) was 0.16, the “-lgKd(i)” value ([15]; .64 mM sialoside) was 4.6 and the “A^i (absorbance)” value ([15]; .64 mM sialoside) was 0.08. The “-lgKd ± SD” value ([15]; mean over concentrations) was 4.6 ± 0.05, the “-lgKd(i)” value ([16]; 1.28 mM sialoside) was 3.0 and the “A^i (absorbance)” value ([16]; 1.28 mM sialoside) was 0.22. The “-lgKd(i)” value ([16]; .32 mM sialoside) was 2.8, the “A^i (absorbance)” value ([16]; .32 mM sialoside) was 0.36 and the “-lgKd(i)” value ([16]; .64 mM sialoside) was 2.9. The “A^i (absorbance)” value ([16]; .64 mM sialoside) was 0.31 and the “-lgKd ± SD” value ([16]; mean over concentrations) was 2.9 ± 0.1.

With `CC(=S)NC1C(O)CC(OCc2ccc(NC(=S)CN)cc2)(C(=O)O)OC1C(O)C(O)CO` [VIII, p-thioglycylamidobenzyl 3,5-dideoxy-5-thioacetamido-α-D-glycero-D-galacto-nonulopyranosidonic acid] the Stability [17] was “unstable”.
